From publication PMC11093223, “Cargo selective vesicle tethering: The structural basis for binding of specific cargo proteins by the Golgi tether component TBC1D23” (Science Advances, 2024)
“Also recorded” adds a separate entry of the source. Read-outs that look alike come from different tables or passages of the source. Residues, ends and D or L forms follow the SMILES beside them.

Assays:
[1] = target: T1, TBC1D23 C-terminal domain (Mus musculus, UniProt Q8K0F1); test: ITC of cargo and mutant syntaxin-16 peptides binding to wild-type TBC1D23 C-terminal domain; conditions: for Kd / KD (μM): 20°C; for KD (μM): peptide (0.8-5 mM) titrated into 100 μM domain, 100 mM NaCl, 100 mM tris pH 7.4, 1 mM TCEP, mean of three independent runs
T1 construct: TBC1D23 C-terminal domains were gel-filtered into buffer; GST (N, cleaved yes); made in house; host or cells: E. coli BL21 pLysS
T1 sequence (Q8K0F1 559-684 limits assumed): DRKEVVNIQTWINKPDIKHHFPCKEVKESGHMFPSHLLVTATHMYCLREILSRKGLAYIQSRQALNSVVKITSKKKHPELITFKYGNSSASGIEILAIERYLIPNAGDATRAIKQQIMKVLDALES
Procedure: (§1) Experiments were performed using a Nano ITC machine from TA Instruments. TBC1D23 C-terminal domains were gel-filtered into buffer composed of 100 mM NaCl, 100 mM tris (pH 7.4), and 1 mM tris(2-carboxyethyl)phosphine (TCEP). Peptides were dissolved in the same batch of buffer. Both the wild-type and mutant C-terminal domains were concentrated to 100 μM (1.4 mg/ml) with peptide concentration varying between 0.8 and 5 mM (depending on the peptide). Peptides were titrated into TBC1D23 C-terminal domains with 20 injections of 2.4 μl each separated by 300-s intervals. Experiments were conducted at 20°C. […] Data were exported to GraphPad Prism for figure generation.
(§2) Recombinant proteins were expressed in BL21 plyS E. coli grown in shaking 2× TY medium at 37°C. Expression was induced with 0.2 mM IPTG, and cells were grown overnight at 22°C. Cells were resuspended in buffer A [250 mM NaCl, 20 mM tris (pH 7.4), and 1 mM DTT] supplemented with 4-benzenesulfonyl fluoride hydrochloride, MnCl2 and deoxyribonuclease I. Cell pellets were lysed using a cell disruptor (Constant Systems) before clarification by ultracentrifugation (104,350 relative centrifugal force) for 45 min. The supernatant was batch bound to glutathione-Sepharose resin (Cytiva) in buffer A before washing with 400 ml of buffer A and overnight cleavage of the GST-tag with thrombin at room temperature. The resultant flow through was concentrated for gel filtration Superdex 200 column (GE Healthcare) into either buffer A for crystallization or into ITC buffer [100 mM NaCl, 100 mM tris (pH 7.4), and 1 mM TCEP].

[2] = target: T2, TBC1D23 C-terminal domain I675W (Mus musculus, UniProt Q8K0F1, I675W); test: ITC of syntaxin-16 peptide binding to TBC1D23 C-terminal domain mutant I675W
T2 construct: GST (N, cleaved yes); made in house; host or cells: E. coli BL21 pLysS
T2 sequence (Q8K0F1 559-684 I675W limits assumed): as the sequence (Q8K0F1 559-684 limits assumed) above, with I117W counted along it
Procedure: as §1
as §2, with “The resultant flow through was concentrated for gel filtration Superdex 200 column (GE Healthcare) into either buffer A for crystallization or into ITC buffer [100 mM NaCl, 100 mM tris (pH 7.4), and 1 mM TCEP].” left out

[3] = target: T3, TBC1D23 C-terminal domain K672A (Mus musculus, UniProt Q8K0F1, K672A); test: ITC of syntaxin-16 peptide binding to TBC1D23 C-terminal domain mutant K672A; conditions: mean of three runs, read-out: Mean affinity
T3 construct: Both the wild-type and mutant C-terminal domains were concentrated to 100 μM; GST (N, cleaved yes); made in house; host or cells: E. coli BL21 pLysS
T3 sequence (Q8K0F1 559-684 K672A limits assumed): as the sequence (Q8K0F1 559-684 limits assumed) above, with K114A counted along it
Procedure: as §1
as §2, with “The resultant flow through was concentrated for gel filtration Superdex 200 column (GE Healthcare) into either buffer A for crystallization or into ITC buffer [100 mM NaCl, 100 mM tris (pH 7.4), and 1 mM TCEP].” left out

[4] = target: T4, TBC1D23 C-terminal domain V626D (Mus musculus, UniProt Q8K0F1, V626D); test: ITC of syntaxin-16 peptide binding to TBC1D23 C-terminal domain mutant V626D
T4 construct: Both the wild-type and mutant C-terminal domains were concentrated to 100 μM; GST (N, cleaved yes); made in house; host or cells: E. coli BL21 pLysS
T4 sequence (Q8K0F1 559-684 V626D limits assumed): as the sequence (Q8K0F1 559-684 limits assumed) above, with V68D counted along it
Procedure: as §1
as §2, with “The resultant flow through was concentrated for gel filtration Superdex 200 column (GE Healthcare) into either buffer A for crystallization or into ITC buffer [100 mM NaCl, 100 mM tris (pH 7.4), and 1 mM TCEP].” left out

[5] = pH 7.4, bound given for peptides without measurable binding, read-out: Affinity
[6] = pH 7.4, mean of three runs, read-out: Mean affinity
[7] = bound, no measurable binding, read-out: Affinity

Structure (SMILES) | Kd [1, 5] [µM] | KD (μM) [1] | Kd [1, 6] [µM] | other results
CSCC[C@H](NC(=O)[C@H](CC(C)C)NC(=O)[C@H](Cc1c[nH]c2ccccc12)NC(=O)[C@H](CCC(=O)O)NC(=O)[C@@H](NC(=O)[C@H](CCC(=O)O)NC(=O)[C@H](CC(N)=O)NC(=O)[C@H](CCC(=O)O)NC(=O)[C@H](CC(=O)O)NC(=O)[C@@H](NC(=O)[C@H](CCC(=O)O)NC(=O)[C@H](CCC(=O)O)NC(=O)[C@@H](N)CCC(=O)O)[C@@H](C)O)[C@@H](C)O)C(=O)O [CIMPR_WLM] (H-EEETDENETEWLM-OH; N-terminus and C-terminus assumed) | > 200 | no binding |  | 
CC(C)C[C@H](NC(=O)[C@@H](NC(=O)[C@H](CCC(=O)O)NC(=O)[C@H](CCC(=O)O)NC(=O)[C@@H](N)CCC(=O)O)[C@@H](C)O)C(=O)N[C@@H](Cc1ccc(O)cc1)C(=O)N[C@@H](CO)C(=O)N[C@@H](CO)C(=O)N[C@@H](CCCCN)C(=O)N[C@@H](Cc1c[nH]cn1)C(=O)O [CPD_TLY] (H-EEETLYSSKH-OH) |  |  | 10.6 | 
CC(C)[C@H](NC(=O)[C@@H](NC(=O)[C@H](CCC(=O)O)NC(=O)[C@H](CCC(=O)O)NC(=O)[C@H](CC(=O)O)NC(=O)[C@H](CO)NC(=O)[C@@H](N)CC(=O)O)[C@@H](C)O)C(=O)N[C@@H](Cc1ccccc1)C(=O)N[C@@H](CCC(=O)O)C(=O)N[C@@H](CO)C(=O)O [FAM174C_TVF] (H-DSDEETVFES-OH) |  |  | 15.7 | 
CC[C@H](C)[C@H](NC(=O)[C@@H](NC(=O)[C@H](CC(=O)O)NC(=O)[C@H](CCC(N)=O)NC(=O)[C@H](CC(=O)O)NC(=O)[C@H](CO)NC(=O)[C@H](CC(=O)O)NC(=O)[C@H](Cc1ccccc1)NC(=O)[C@H](CCC(=O)O)NC(=O)[C@H](CO)NC(=O)[C@@H](N)CCC(=O)O)[C@@H](C)O)C(=O)N[C@@H](Cc1ccccc1)C(=O)O [KIAA0319_TIF] (H-ESEFDSDQDTIF-OH) |  |  | 35.2 | 
CC(C)[C@H](NC(=O)[C@@H](NC(=O)[C@H](Cc1ccccc1)NC(=O)[C@H](CC(=O)O)NC(=O)CNC(=O)[C@H](CC(=O)O)NC(=O)[C@H](CCC(=O)O)NC(=O)[C@H](CC(N)=O)NC(=O)[C@H](CCC(=O)O)NC(=O)[C@H](CCC(=O)O)NC(=O)[C@@H](N)CC(=O)O)[C@@H](C)O)C(=O)N[C@@H](Cc1ccc(O)cc1)C(=O)N[C@@H](CCC(=O)O)C(=O)N[C@@H](CS)C(=O)O [NPDC1_TVY] (H-DEENEDGDFTVYEC-OH) |  |  | 2.91 | 
CC(C)[C@H](NC(=O)[C@@H](NC(=O)[C@H](CO)NC(=O)[C@H](Cc1ccc(O)cc1)NC(=O)[C@@H](NC(=O)[C@@H](NC(=O)[C@H](CC(N)=O)NC(=O)[C@H](C)NC(=O)[C@@H]1CCCN1C(=O)[C@H](CC(=O)O)NC(=O)[C@@H](N)CCC(=O)O)[C@@H](C)O)C(C)C)[C@@H](C)O)C(=O)N[C@@H](CCC(=O)O)C(=O)O [SLAMF7_TVY] (H-EDPANTVYSTVE-OH; N-terminus and C-terminus assumed) | > 200 | no binding |  | 
CC(C)C[C@H](NC(=O)[C@@H](NC(=O)[C@H](CC(N)=O)NC(=O)[C@H](C)NC(=O)[C@H](C)N)[C@@H](C)O)C(=O)N[C@@H](Cc1ccc(O)cc1)C(=O)N[C@@H](Cc1c[nH]cn1)C(=O)N[C@@H](CCCNC(=N)N)C(=O)NCC(=O)N[C@@H](Cc1ccccc1)C(=O)N[C@H](C(=O)N[C@@H](CCC(=O)O)C(=O)N[C@@H](CC(=O)O)C(=O)O)[C@@H](C)O [STX16_DDAA] (H-AANTLYHRGFTED-OH; N-terminus and C-terminus assumed) | > 200 |  |  | 
C[C@H](NC(=O)[C@@H](NC(=O)[C@H](CC(N)=O)NC(=O)[C@H](CC(=O)O)NC(=O)[C@@H](N)CC(=O)O)[C@@H](C)O)C(=O)N[C@@H](Cc1ccc(O)cc1)C(=O)N[C@@H](Cc1c[nH]cn1)C(=O)N[C@@H](CCCNC(=N)N)C(=O)NCC(=O)N[C@@H](Cc1ccccc1)C(=O)N[C@H](C(=O)N[C@@H](CCC(=O)O)C(=O)N[C@@H](CC(=O)O)C(=O)O)[C@@H](C)O [STX16_LtoA] (H-DDNTAYHRGFTED-OH; N-terminus and C-terminus assumed) | > 200 |  |  | reduction of binding relative to wild-type syntaxin-16 peptide [1]: > 100 fold
C[C@@H](O)[C@H](NC(=O)[C@H](Cc1ccccc1)NC(=O)CNC(=O)[C@H](CCCNC(=N)N)NC(=O)[C@H](Cc1c[nH]cn1)NC(=O)[C@H](Cc1ccc(O)cc1)NC(=O)[C@H](Cc1ccccc1)NC(=O)[C@@H](NC(=O)[C@H](CC(N)=O)NC(=O)[C@H](CC(=O)O)NC(=O)[C@@H](N)CC(=O)O)[C@@H](C)O)C(=O)N[C@@H](CCC(=O)O)C(=O)N[C@@H](CC(=O)O)C(=O)O [STX16_LtoF] (H-DDNTFYHRGFTED-OH) |  |  | 151 | 
C[C@@H](O)[C@H](NC(=O)[C@H](Cc1ccccc1)NC(=O)CNC(=O)[C@H](CCCNC(=N)N)NC(=O)[C@H](Cc1c[nH]cn1)NC(=O)[C@H](Cc1ccc(O)cc1)NC(=O)[C@H](CO)NC(=O)[C@@H](NC(=O)[C@H](CC(N)=O)NC(=O)[C@H](CC(=O)O)NC(=O)[C@@H](N)CC(=O)O)[C@@H](C)O)C(=O)N[C@@H](CCC(=O)O)C(=O)N[C@@H](CC(=O)O)C(=O)O [STX16_LtoS] (H-DDNTSYHRGFTED-OH; N-terminus and C-terminus assumed) | > 200 | No binding |  | 
CC(C)C[C@H](NC(=O)[C@@H](NC(=O)[C@H](CC(N)=O)NC(=O)[C@H](CC(=O)O)NC(=O)[C@@H](N)CC(=O)O)[C@@H](C)O)C(=O)N[C@@H](Cc1ccc(O)cc1)C(=O)N[C@@H](Cc1c[nH]cn1)C(=O)N[C@@H](CCCNC(=N)N)C(=O)NCC(=O)N[C@@H](Cc1ccccc1)C(=O)N[C@H](C(=O)N[C@@H](CCC(=O)O)C(=O)N[C@@H](CC(=O)O)C(=O)O)[C@@H](C)O [STX16_TLY] (H-DDNTLYHRGFTED-OH) |  |  |  | KD (μM) ([2]; 20°C, pH 7.4, figure and text): No binding; Kd [2, 7]: > 200 µM; Kd [3]: 27.6 µM; KD (μM) ([4]; 20°C, pH 7.4, figure and text, listed as syntaxin-16 peptide): abolishes peptide binding; also recorded: No binding; Kd [4, 7]: > 200 µM
CC(C)C[C@H](NC(=O)[C@H](C)NC(=O)[C@H](CC(N)=O)NC(=O)[C@H](CC(=O)O)NC(=O)[C@@H](N)CC(=O)O)C(=O)N[C@@H](Cc1ccc(O)cc1)C(=O)N[C@@H](Cc1c[nH]cn1)C(=O)N[C@@H](CCCNC(=N)N)C(=O)NCC(=O)N[C@@H](Cc1ccccc1)C(=O)N[C@H](C(=O)N[C@@H](CCC(=O)O)C(=O)N[C@@H](CC(=O)O)C(=O)O)[C@@H](C)O [STX16_TtoA] (H-DDNALYHRGFTED-OH; N-terminus and C-terminus assumed) | > 200 | No binding |  | 
CC(C)C[C@H](NC(=O)[C@@H](NC(=O)[C@H](CC(N)=O)NC(=O)[C@H](CC(=O)O)NC(=O)[C@@H](N)CC(=O)O)[C@@H](C)O)C(=O)N[C@@H](CO)C(=O)N[C@@H](Cc1c[nH]cn1)C(=O)N[C@@H](CCCNC(=N)N)C(=O)NCC(=O)N[C@@H](Cc1ccccc1)C(=O)N[C@H](C(=O)N[C@@H](CCC(=O)O)C(=O)N[C@@H](CC(=O)O)C(=O)O)[C@@H](C)O [STX16_YtoS] (H-DDNTLSHRGFTED-OH; N-terminus and C-terminus assumed) | > 200 | No binding |  | 
CC(C)C[C@H](NC(=O)[C@@H](NC(=O)[C@H](CC(N)=O)NC(=O)[C@H](CC(=O)O)NC(=O)[C@@H](N)CC(=O)O)[C@@H](C)O)C(=O)N[C@@H](Cc1c[nH]c2ccccc12)C(=O)N[C@@H](Cc1c[nH]cn1)C(=O)N[C@@H](CCCNC(=N)N)C(=O)NCC(=O)N[C@@H](Cc1ccccc1)C(=O)N[C@H](C(=O)N[C@@H](CCC(=O)O)C(=O)N[C@@H](CC(=O)O)C(=O)O)[C@@H](C)O [STX16_YtoW] (H-DDNTLWHRGFTED-OH) |  |  | 5.64 | 
